Data reported in patent publication US20140163034A1, “INHIBITORS OF ANANDAMIDE TRANSPORT AND THEIR THERAPEUTIC USES” (IIT - Istituto Italiano di Tecnologia, priority 2011, published 2014).

What was measured:
carrageenan-treated mice = test: Carrageenan-induced inflammatory pain and paw edema in mice; assay type: in vivo; settings: for effect of antagonist on the anti-hyperalgesic and anti-edema effects of ARN272: antagonist 1 mg/kg intraperitoneal, 30 min before carrageenan
Protocol: Behavioral experiments were performed in accordance with the Ethical Guidelines of the International Association for the Study of Pain and approved by Italian regulations on protection of animals used for experimental and other scientific purposes (D.M. 116192) as well as with European Economic Community regulations (O.J. of E.C. L 358/1 Dec. 18, 1986). Behavioral testing was performed between 9:00 a.m. and 5:00 p.m., in a quiet room, during the light cycle. Mice were used once and were sacrificed at the end of the experiment by cervical dislocation. edema was elicited by injecting λ-carrageenan (1% weight/vol in sterile water, 20 μl) into the left hindpaw of mice. Edema was measured with a plethysmometer (Ugo Basile, Comerio, Italy) at different time intervals. Drug solutions were prepared immediately before use in saline containing 10% PEG-400 and 10% Tween 80. Mechanical hyperalgesia was determined by measuring the latency in seconds to withdraw the paw away from a constant mechanical pressure exerted onto the dorsal surface. A 15-g calibrated glass cylindrical rod (diameter=10 mm) chambered to a conical point (diameter=3 mm) was used to exert the mechanical force. The weight was suspended vertically between two rings attached to a stand and was free to move vertically. A cutoff time of 180 s was used. Withdrawal thresholds were measured on both the inflamed paw (ipsilateral) and not inflamed paw (contralateral) 2, 4, 6 and 24 hours after carrageenan injection. Thermal hyperalgesia was assessed by the method of Hargreaves et al. (1988) by measuring the latency to withdraw the hind paw from a focused beam of radiant heat (thermal intensity: infrared 3.0) applied to the plantar surface using a plantar test apparatus (Ugo Basile). The cutoff time was set at 30 s. Withdrawal latency were measured on both inflamed and not-inflamed paws ( ) 2, 4, 6 and 24 hours after carrageenan injection. Vehicle or ARN272 (0.01-3 mg/kg, intraperitoneal) were injected immediately before carrageenan. AM251, AM630 and AMG 9810 (1 mg/kg, intraperitoneal) were injected 30 min before carrageenan.

[1] = target: T1, FLAT-expressing Hek293 cells (Rattus norvegicus, UniProt P97612, DEL9-76); test: [3H]-anandamide accumulation (translocation) in FLAT-expressing Hek293 cells; assay type: cell-based; settings: for IC50: 5 min at 37° C., read-out: IC50, inhibition of [3H]-anandamide accumulation in FLAT-expressing Hek293 cells
T1 construct: expressed in transfected cells
T1 sequence (P97612 with tags, fused parts or gaps DEL9-76): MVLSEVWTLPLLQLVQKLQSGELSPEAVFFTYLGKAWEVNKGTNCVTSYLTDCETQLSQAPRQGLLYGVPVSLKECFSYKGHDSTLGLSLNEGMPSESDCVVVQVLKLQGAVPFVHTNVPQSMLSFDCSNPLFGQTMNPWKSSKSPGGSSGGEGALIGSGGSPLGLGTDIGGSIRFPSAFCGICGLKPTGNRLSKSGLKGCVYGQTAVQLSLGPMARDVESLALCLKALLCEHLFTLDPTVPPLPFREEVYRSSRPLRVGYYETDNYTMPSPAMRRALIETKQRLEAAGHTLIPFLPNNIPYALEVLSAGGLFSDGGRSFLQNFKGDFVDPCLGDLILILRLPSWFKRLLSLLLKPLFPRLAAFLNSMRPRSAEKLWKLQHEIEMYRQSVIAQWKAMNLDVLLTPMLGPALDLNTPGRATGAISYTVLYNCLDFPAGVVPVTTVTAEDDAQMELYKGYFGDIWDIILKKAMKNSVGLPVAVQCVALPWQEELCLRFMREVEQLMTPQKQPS

rat FLAT-GST = target: T2, rat FLAT-GST (Rattus norvegicus, UniProt P97612, DEL9-76); test: [3H]-anandamide binding to purified GST-FLAT fusion protein
T2 construct: made in house; host or cells: E. coli BL21
T2 sequence (P97612 with tags, fused parts or gaps DEL9-76): T1 sequence (P97612 with tags, fused parts or gaps DEL9-76)
Protocol: A pGEX-rFLAT plasmid containing fused rat FLAT and GST genes was constructed into a pGEX-4T vector (Amersham Biosciences, Piscataway, N.J.) and digested with BamH 1. The GST-FLAT fusion protein was generated in E. coli (BL21 strain, Novagen, San Diego, Calif.). E. coli were cultured in 2× yeast extract medium and induced with isopropyl-1-thio-β-D-galactopyranoside (IPTG) (0.1 mM). After induction, bacteria were grown at 27° C. for 10 h and harvested by centrifugation. The GST-FLAT fusion protein was purified using glutathione-sepharose beads (Amersham Biosciences), following manufacturer's instructions. Purified GST-FLAT was incubated at 25° C. for 2 h in HEPES buffer (50 mM, pH 7.0) containing KCl (50 mM), EDTA (5 mM), dithiothreitol (10 mM), and [^3H]-anandamide (15 Ci/mmol). Free from bound [^3H]-anandamide was separated on a Sephadex G-25 spin column (Amersham Biosciences) and radioactivity in the bound fraction was measured by liquid scintillation counting. Non-specific binding was determined in the presence of non-radioactive anandamide (10 μM).

rat brain FAAH = target: T3, rat brain FAAH (Rattus norvegicus, UniProt P97612); test: FAAH activity assay, rat brain; assay type: biochemical; settings: weak and incomplete inhibition
T3 construct: from tissue; host or cells: rat brain membranes
T3 sequence (P97612 1-579): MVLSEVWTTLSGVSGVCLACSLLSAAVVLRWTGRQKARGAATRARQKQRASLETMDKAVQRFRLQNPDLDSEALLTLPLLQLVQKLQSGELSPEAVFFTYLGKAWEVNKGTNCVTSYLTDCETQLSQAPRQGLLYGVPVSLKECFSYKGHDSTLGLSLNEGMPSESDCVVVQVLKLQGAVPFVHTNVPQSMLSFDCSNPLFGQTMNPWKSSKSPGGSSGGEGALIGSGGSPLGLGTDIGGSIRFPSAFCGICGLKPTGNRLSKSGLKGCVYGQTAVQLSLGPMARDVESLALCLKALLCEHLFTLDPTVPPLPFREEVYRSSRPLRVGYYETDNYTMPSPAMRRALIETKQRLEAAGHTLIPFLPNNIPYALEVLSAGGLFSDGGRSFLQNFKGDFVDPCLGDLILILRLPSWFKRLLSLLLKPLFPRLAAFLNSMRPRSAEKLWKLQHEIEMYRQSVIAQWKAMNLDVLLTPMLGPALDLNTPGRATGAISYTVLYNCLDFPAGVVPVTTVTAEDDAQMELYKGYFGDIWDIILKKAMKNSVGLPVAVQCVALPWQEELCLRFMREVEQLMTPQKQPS
Protocol: Cells were harvested and subjected to sonication in Tris-HCl buffer (50 mM, pH 8.0) containing sucrose ([…]). Debris was removed by centrifugation for 5 min at 1,000×g, and protein concentration measured using a commercial kit (Bio-Rad, Hercules, Calif.). […] After stopping the reactions with chloroform/methanol (1:1, vol/vol, 1 ml), radioactivity was measured in the aqueous layers.

recombinant human FAAH-1 = target: T4, recombinant human FAAH-1 (Homo sapiens, UniProt O00519); test: Hydrolysis of compound by incubation with recombinant human FAAH-1; assay type: in vitro ADME; settings: after 24 h at 25° C.
T4 sequence (O00519 1-579): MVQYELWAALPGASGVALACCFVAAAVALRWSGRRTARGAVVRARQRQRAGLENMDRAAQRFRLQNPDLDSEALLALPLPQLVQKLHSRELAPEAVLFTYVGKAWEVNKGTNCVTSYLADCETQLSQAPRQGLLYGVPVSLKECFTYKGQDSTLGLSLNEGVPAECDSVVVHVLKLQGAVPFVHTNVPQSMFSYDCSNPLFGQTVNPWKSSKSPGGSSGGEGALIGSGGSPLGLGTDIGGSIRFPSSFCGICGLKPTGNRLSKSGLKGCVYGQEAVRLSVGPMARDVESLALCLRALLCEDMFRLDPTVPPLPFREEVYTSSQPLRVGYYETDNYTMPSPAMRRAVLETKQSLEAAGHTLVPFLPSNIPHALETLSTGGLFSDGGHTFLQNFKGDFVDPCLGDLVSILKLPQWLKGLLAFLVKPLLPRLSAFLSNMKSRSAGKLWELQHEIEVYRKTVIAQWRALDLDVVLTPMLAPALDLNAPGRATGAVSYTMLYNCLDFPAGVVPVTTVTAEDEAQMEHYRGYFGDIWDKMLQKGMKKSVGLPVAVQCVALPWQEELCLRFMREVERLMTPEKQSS

[2] = target: T5, CB1 cannabinoid receptors (Rattus norvegicus, UniProt P20272); test: Cannabinoid receptor binding assay, [3H]-CP55940 to rat brain membranes
T5 construct: Brain membrane protein (50 μg) was incubated at 30° C. for 1 hr; from tissue; host or cells: rat brain membranes

[3] = Fatty acid amide measurements ex vivo (plasma levels in mice); settings: 1 mg/kg intraperitoneal
Protocol: CD1 mice received intraperitoneal injections of vehicle (5% polyethylene glycol 400-5% Tween-80 in saline, 5 ml/kg) or ARN272 (1 mg/kg) and were sacrificed 1 h or 2 h later under isoflurane anaesthesia. Blood was collected through a left cardiac puncture and centrifuged at 2000×g for 30 min. Plasma (0.2 ml) was incubated with 1 ml cold acetone, centrifuged at 1,500×g for 15 min at 4° C. and suspended in 50% methanol (2 ml) containing the following deuterium-containing standards: […] Lipids were reconstituted in methanol (0.1 ml) and measured by isotope-dilution liquid chromatography/mass spectrometry (Fu, J. et al., J Biol Chem, 282, 1518 (2007)).

[4] = test system: rat cortical neurons in primary cultures; test: [3H]-anandamide accumulation in rat cortical neurons in primary cultures; assay type: cell-based; settings: Cortical neurone, read-out: IC50, inhibition of [3H]-anandamide accumulation in rat cortical neurons
Protocol: Primary cultures of rat cortical neurons were prepared as described (Evans, M. S. et al., J Neurosci Methods, 79, 37 (1998)). Briefly, cerebral cortices from 18 day-old rat embryos were dissected and cells were dissociated gently with a glass Pasteur pipette in phosphate-buffered saline (PBS, 10 mM, pH=7.5) containing glucose (6%, weight/volume). The cells were plated in 6-well plates (at a density of 5×10^5 cells per well) coated with poly-(L)-ornithine (10 μg/ml) and poly(DL)-lysine (100 μg/ml), and cultured in Eagle's Minimum Essential Medium (MEM) supplemented with heat-inactivated horse serum (5%, vol/vol) and fetal bovine serum (FBS, 5%, vol/vol), glucose (30 mM), L-glutamine (2 mM), penicillin (10 units/ml), streptomycin (10 μg/ml) and HEPES (15 mM, pH 7.4). After 3 days in culture, media were replaced with Neurobasal (Invitrogen, Carlsbad, Calif.) supplemented with B-27 containing L-glutamine (0.1 mM), streptomycin (10 μg/ml) and penicillin (10 units/ml). The cultures were maintained at 37° C. in a humidified atmosphere of 95% air and 5% CO2. […] The cells were rinsed twice with Tris-Krebs buffer, scraped twice into sodium hydroxide (0.2 N, 0.5 ml) and transferred into scintillation vials. […] All experiments were conducted in triplicate.

rat cortical neurons = settings: read-out: apparent Michaelis constant, KM, of anandamide transport; cited from earlier work

T5 sequence (P20272 whole entry): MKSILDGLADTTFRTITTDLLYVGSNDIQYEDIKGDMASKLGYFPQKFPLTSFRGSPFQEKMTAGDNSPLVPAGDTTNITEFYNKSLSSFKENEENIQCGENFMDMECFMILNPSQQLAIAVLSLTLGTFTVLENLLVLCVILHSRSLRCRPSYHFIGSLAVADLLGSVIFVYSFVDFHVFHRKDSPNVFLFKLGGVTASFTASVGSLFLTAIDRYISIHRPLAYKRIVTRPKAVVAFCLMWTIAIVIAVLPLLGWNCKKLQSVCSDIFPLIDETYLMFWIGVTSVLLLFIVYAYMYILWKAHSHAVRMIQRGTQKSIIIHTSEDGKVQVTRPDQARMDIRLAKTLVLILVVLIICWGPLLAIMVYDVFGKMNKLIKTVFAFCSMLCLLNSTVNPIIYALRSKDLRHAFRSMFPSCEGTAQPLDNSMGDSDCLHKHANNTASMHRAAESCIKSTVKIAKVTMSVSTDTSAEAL

Cc1c(C(=O)NN2CCCCC2)nn(-c2ccc(Cl)cc2Cl)c1-c1ccc(I)cc1 [AM251, reference compound]
effect of antagonist on the anti-hyperalgesic and anti-edema effects of ARN272 (carrageenan-treated mice): suppressed

CCCCC/C=C\C/C=C\C/C=C\C/C=C\CCCC(=O)Nc1ccc(O)cc1 [AM404]
IC50 [1]: 4 µM | IC50 (rat FLAT-GST; purified recombinant FLAT, read-out: IC50, displacement of [3H]-anandamide binding to FLAT-GST): 5.3 µM

COc1ccc(C(=O)c2c(C)n(CCN3CCOCC3)c3cc(I)ccc23)cc1 [AM630, reference compound]
effect of antagonist on the anti-hyperalgesic and anti-edema effects of ARN272 (carrageenan-treated mice): ineffective

CC(C)(C)c1ccc(/C=C/C(=O)Nc2ccc3c(c2)OCCO3)cc1 [AMG9810, reference compound]
effect of antagonist on the anti-hyperalgesic and anti-edema effects of ARN272 (carrageenan-treated mice): ineffective

O=C(Nc1ccccc1)c1ccc(Nc2nnc(-c3ccc(O)cc3)c3ccccc23)cc1 [ARN272, 4-{[4-(4-hydroxyphenyl)phthalazin-1-yl]amino-N-phenylbenzamide}]
mechanical hyperalgesia in inflamed paws (carrageenan-treated mice; 0.01-3 mg/kg intraperitoneal): dose-dependent reduction | thermal hyperalgesia in inflamed paws (carrageenan-treated mice; 0.01-3 mg/kg intraperitoneal): dose-dependent reduction | duration of anti-hyperalgesic effect (carrageenan-treated mice; after intraplantar carrageenan): up to 4 h | paw edema (carrageenan-treated mice; intraperitoneal): substantially reduced | inhibition at 100 µM (rat brain FAAH): 50% | fraction hydrolyzed by recombinant human FAAH-1 (recombinant human FAAH-1): ≈ 5% | effect on [3H]-CP55940 binding to rat brain membranes [2]: did not significantly alter | plasma concentrations of anandamide [3]: increased | plasma levels of 2-AG [3]: without changing | plasma levels of OEA [3]: without changing | plasma levels of PEA [3]: without changing | IC50 [1]: 3.5 µM | IC50 [4]: 1.5 µM

CCCCC/C=C\C/C=C\C/C=C\C/C=C\CCCC(=O)NCc1ccoc1 [UCM707]
effect on [3H]-anandamide accumulation in FLAT-expressing Hek293 cells ([1]; transport inhibitors): prevented

CCCCC/C=C\C/C=C\C/C=C\C/C=C\CCCC(=O)Nc1ccc(O)cc1C [VDM11]
effect on [3H]-anandamide accumulation in FLAT-expressing Hek293 cells ([1]; transport inhibitors): prevented

CCCCC/C=C\C/C=C\C/C=C\C/C=C\CCCC(=O)NCCO [anandamide]
Km (rat cortical neurons): 1.2 µM | effect on [3H]-anandamide accumulation in FLAT-expressing Hek293 cells ([1]; non-radioactive anandamide, 100 μM): prevented | Kd (rat FLAT-GST; saturation binding, 25° C., 2 h, read-out: dissociation constant, Kd, of [3H]-anandamide binding to FLAT-GST): 2 µM
